Data on 6 molecules can be found in article PMC6453917, “On resin click-chemistry-mediated synthesis of novel enkephalin analogues with potent anti-nociceptive activity” (Scientific Reports, 2019).

Read-outs that look alike come from different tables or passages of the source. Where a SMILES comes first, the peptide text is derived from it. Bridges are numbered along the chain shown (N, C = ends). Triazole bridges read from a SMILES are 1,4-linked. [ ]: non-standard residue; d: D form. dDap(N3) = [N-]=[N+]=NC[C@@H](N)C(=O)O; dPra = C#CC[C@@H](N)C(=O)O Bounds are passed on as bounds.

Data set [1] has as its system CD-1 male mice. Put plainly: Formalin test. The settings on record: s.c., 100 nmol, 15 min before formalin. The class given is in vivo. The source says: The formalin test involves moderate and continuous pain generated by an injured tissue, and the measured response is the time the animals spend licking the injected paw. […] The early phase is caused predominantly by δ-fiber activation, due to a direct effect on nociceptors, while the late phase appears to be an inflammatory response, involving the unmyelinated C-fibre[44].
CD-1 male mice (Harlan, Italy) weighing 25–30 g were used in all the experiments. Before the experimental sessions, the mice were maintained in colony, housed in cages (7 mice per cage) under standard light/dark cycle (from 7:00 AM to 7:00 PM), temperature (21 ± 1 °C) and relative humidity (60 ± 10%) for at least 1 week. Food and water were available ad libitum. […]
Subcutaneous injection of a dilute solution of formalin (1%, 20 μL/paw) into the mice hind paw evoked nociceptive behavioural responses, such as licking, biting the injected paw or both, which are considered indices of nociception. […] The total time the animal spent licking or biting its paw during the early and late phase of formalin-induced nociception was recorded. […]

For data set [2], the system named is CD-1 male mice. Briefly: Hot plate test (thermal nociception). The conditions noted are these: i.v., 23 μmol.kg−1, mice. The class given is in vivo.
For data set [3] the following is noted: cited from earlier work.
Data set [4] addresses T1, human KOP (Homo sapiens, UniProt P41145).
T1 construct: expressed in transfected cells; host or cells: CHO cells (membrane preparations)
Briefly: Competition radioligand binding vs 3H-diprenorphine, KOP.

The target of data set [5] is T1, human KOP. Put plainly: 35S-GTPγS coupling assay, KOP. Set-up: Emax: dose or concentration left out as unconfirmed. The settings on record: for Emax: read-out: KOP EMax (in parentheses). The class given is biochemical.
Data set [6] is described as follows: Plasma stability assay. It is filed as in vitro ADME. The settings on record: human plasma, 37 °C, read-out: degradation half-life (t1/2). As to the method: A plasma stability assay was performed by incubation of compounds in human plasma at a chosen initial concentration (i.e. 5 μM) at 37 °C. The aliquots of the incubated plasma samples were taken at T0 (at the beginning) and at T2 (after 4 hours). Collected samples were spiked with cold acetonitrile to precipitate proteins and prevent the compound from further decomposition. The assay was repeated in triplicate. Plasma aliquots were centrifuged and the supernatant collected and analyzed by LC-MS technique. The instrument responses were referenced to the zero time-point sample (as 100%) in order to determine the percentage of compound remaining after incubation at a given time point. The half-life parameter was calculated from linear regression of time course data.
Plasma and working solutions of experimental and control compounds (at appropriate concentrations) were warmed to 37 °C. 99 µL of plasma was dispensed into a pre-labeled 96-well plate (in triplicate per time-point). Then 1 µL of test compound and reference compound were transferred to wells filled by plasma. 200 µL of cold acetonitrile was added immediately into wells marked as the ‘0’ time point to precipitate proteins and prevent compound from biotransformation. Plates were incubated in a thermostatic shaker at 37 °C while shaken at 350 rpm. […] Samples were analyzed using an LC-MS technique.

The nature of data set [7]: BBB PAMPA assay (porcine brain lipids).
Details of data set [8]: method as in PMID 29513114. The settings on record: cited from earlier work.
On the set-up of data set [9]: method as in PMID 25755050. The settings on record: compared with morphine; cited from earlier work.
On the set-up of data set [10]: method as in PMID 25755050. The settings on record: cited from earlier work.
The subject of data set [11] is DOP. The conditions noted are these: read-out: IC50 in the MVD assay; DOP agonist activity; cited from earlier work.
The subject of data set [12] is MOP. The settings on record: MOP agonist activity; read-out: IC50 in the GPI assay; cited from earlier work.

For the molecule `CC1(C)SSC(C)(C)[C@@H](NC(=O)[C@@H](N)Cc2ccc(O)cc2)C(=O)NCC(=O)N[C@@H](Cc2ccccc2)C(=O)N[C@H]1C(=O)O` [DPDPE, (D-Pen^2,D-Pen^5)-Enkephalin], the “antinociceptive effect, formalin test, early and late phase” value in data set [1] is on record as “slight but not significant antinociceptive effect”. The “antinociceptive effect (nociceptive threshold), hot plate” value in data set [2] is reported as “ineffective”. In addition, the “antinociception after i.c.v. administration” value in data set [3] (i.c.v.) is “slightly active until 45 min”. Further, the “antinociception after s.c. administration” value in data set [3] (s.c.) was “completely inactive”.
In data set [4], `NC(=O)[C@H]1Cn2cc(nn2)C[C@@H](NC(=O)[C@@H](N)Cc2ccc(O)cc2)C(=O)NCC(=O)N[C@@H](Cc2ccccc2)C(=O)N1` [NOVA1, H-Tyr-c[DPra-Gly-Phe-DAza]-NH2 triazole] (H-Y[dPra]GF[dDap(N3)]-NH2; triazole 2-5) yielded a Ki above 3.33 µM. In addition, in [5], the EC50 was above 3.33 µM and the Emax was 56.7 ± 5.4%.
As for `NC(=O)[C@H]1Cc2cn(nn2)C[C@@H](NC(=O)[C@@H](N)Cc2ccc(O)cc2)C(=O)NCC(=O)N[C@@H](Cc2ccccc2)C(=O)N1` [NOVA2, H-Tyr-c[DAza-Gly-Phe-DPra]-NH2 triazole] (H-Y[dDap(N3)]GF[dPra]-NH2; triazole 2-5), in [4], the Ki was above 3.33 µM. Further, the half-life at 5 μM in [6] was above 4 h. Besides, in [7] (PAMPA), the “Mean (%) Mass balance” value amounted to 102.22% and the “Pe value relative to negative control theophylline” value is “two-fold higher”. For the same molecule, the Classification result in [7] (PAMPA BBB permeation class) is reported as “Low permeation (Pe<2.0→lowpermeation)”. In addition, in data set [5], the EC50 was above 3.33 µM and the maximal response (Emax) is 68.3 ± 5%.
Dmt-c[D-Lys-Phe-p-CF3-Phe-Asp]NH2 [F18]: the Classification entry in data set [8] (PAMPA BBB permeation class) is reported as “Low permeation (Pe<2.0→lowpermeation)”. For the same molecule, the “Mean (%) Mass balance” value in data set [8] (PAMPA) was 95.75%.
For Tyr-c^2,4[DLys-Phe-Dab]-CH2CH2NHCONH2, in data set [9], the antinociceptive response entry is recorded as “stronger antinociceptive response than that of morphine”. Further, in [10], the enzymatic degradation result was “resistant to enzymatic degradation”.
Regarding “cyclo(N^ε,N^β’-carbonyl-D-Lys^2,Dap^5)-enkephalinamide”, the results for the IC50 in data set [11] and in data set [12] were 0.00065 µM and 0.00021 µM, respectively.
